Experiment: In vitro dissolution of multiple capsules together in 0.1 N HCl (USP Apparatus II)
Format: physicochemical
Experimental: To test the anti-over ingestion properties of the pharmaceutical composition, multiple capsules were combined in a single reaction vessel and percentage of API released was measured. […] The in vitro dissolutions studies of dextromethorphan from Amberlite™ IRP69 from multiple capsules (1, 5, and 10) were carried out in 0.1 HCl with each 200 mg capsule containing 40 mg of the drug.
An additional experiment was performed to support the concept that the ceiling effect was not caused by solubility/sink limitation, but rather by retention by sequestering.
Next, the possibility to gain the same sequestering effect using physical blend of drug with resin instead of drug resinate complex was explored.

COc1ccc2c(c1)[C@]13CCCC[C@@H]1[C@H](C2)N(C)CC3 [dextromethorphan]
release from 1 capsule (40 mg) vs 10 capsules (400 mg) without resin: dose proportional release
